Experimental data reported in US8269000B2, “Substituted pyrimidine and triazine compounds” (Gruenenthal GmbH, priority 2008, dated 2012).

target: T1, rat B1R (Rattus norvegicus, UniProt P97583); experiment: FLIPR Ca2+ functional study on bradykinin receptor 1 (rB1R CHO K1 cells); format: cell-based; details: % inhibition rat B1R at 10 μM
T1 construct: expressed in transfected cells; host or cells: CHO K1 cells
T1 sequence (P97583 1-337): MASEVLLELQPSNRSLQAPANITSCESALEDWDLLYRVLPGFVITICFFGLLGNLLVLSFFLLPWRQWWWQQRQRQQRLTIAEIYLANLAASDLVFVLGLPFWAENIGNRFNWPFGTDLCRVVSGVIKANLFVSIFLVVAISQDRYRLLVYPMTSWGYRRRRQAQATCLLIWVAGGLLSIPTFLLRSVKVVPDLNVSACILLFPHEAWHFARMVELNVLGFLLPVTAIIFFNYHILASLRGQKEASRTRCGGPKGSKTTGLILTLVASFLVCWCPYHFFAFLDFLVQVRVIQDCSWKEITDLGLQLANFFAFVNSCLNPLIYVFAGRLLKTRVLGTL
Outline: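 Antagonism was calculated as % of maximal inhibition of the Ca2+ rise triggered by agonist at EC80 (Lys-Des-Arg9-bradykinin for hB1R, Des-Arg9-bradykinin for rB1R), added 10-20 min after test compound (10 μM or serial dilutions for IC50) to Fluo-4-loaded transfected CHO K1 cells on FLIPR. Duplicates or triplicates, ≥2 independent runs.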

% inh. (rat B1R) 10 μM	Structure (SMILES)
53%	COc1cc(C)c(S(=O)(=O)N2CC(Oc3ccnc(N(C)CCN4CCC(c5ccccc5)(N5CCCC5)CC4)n3)C2)c(C)c1 [H_CC-070]

same assay, conditions: CHO-K1, % inhibition rat B1R at 10 μM, read-out: % inh. (rat B1R) 10 μM

inhibition at 10 µM	Structure (SMILES)
102%	CCCCC1(N(C)C)CCN(CCN(C)c2nccc(OCCN(C)S(=O)(=O)c3c(C)cc(OC)cc3C)n2)CC1 [H_CC-060, N-[2-[2-[2-(4-butyl-4-dimethylamino-piperidin-1-yl)-ethyl-methyl-amino]pyrimidin-4-yl]oxy-ethyl]-4-methoxy-N,2,6-trimethyl-benzenesulfonic acid amide]
105%	COc1cc(C)c(S(=O)(=O)N2CCCCC2COc2ccnc(N(C)CCCN3CCC(c4ccccc4)(N(C)C)CC3)n2)c(C)c1 (stereo not shown) [H_CC-061, 3-(4-dimethylamino-4-phenyl-piperidin-1-yl)-propyl-[4-[[1-[(4-methoxy-2,6-dimethyl-phenyl)sulfonyl]-piperidin-2-yl]-methoxy]-pyrimidin-2-yl]-methyl-amine]
73%	CCCCC1(N(C)C)CCN(c2nccc(OCC3CCCCN3S(=O)(=O)c3c(C)cc(OC)cc3C)n2)CC1 (stereo not shown) [H_CC-062, [4-butyl-1-[4-[[1-[(4-methoxy-2,6-dimethyl-phenyl)sulfonyl]-piperidin-2-yl]-methoxy]-pyrimidin-2-yl]-piperidin-4-yl]-dimethyl-amine]
82%	COc1cc(C)c(S(=O)(=O)N2CCCCC2COc2ccnc(N(C)CCN3CCC(c4ccccc4)(N4CCCC4)CC3)n2)c(C)c1 (stereo not shown) [H_CC-063, [4-[[1-[(4-methoxy-2,6-dimethyl-phenyl)sulfonyl]-piperidin-2-yl]-methoxy]-pyrimidin-2-yl]-methyl-[2-(4-phenyl-4-pyrrolidin-1-yl-piperidin-1-yl)-ethyl]-amine]
61%	COc1cc(C)c(S(=O)(=O)N2CCCC(Oc3ccnc(N4CCC(c5ccccc5)(N(C)C)CC4)n3)C2)c(C)c1 (stereo not shown) [H_CC-064, [1-[4-[1-[(4-methoxy-2,6-dimethyl-phenyl)sulfonyl]-piperidin-3-yl]oxy-pyrimidin-2-yl]-4-phenyl-piperidin-4-yl]-dimethyl-amine]
52%	COc1cc(C)c(S(=O)(=O)N2CCCC(Oc3ccnc(N(C)CCN4CCC(c5ccccc5)(N(C)C)CC4)n3)C2)c(C)c1 (stereo not shown) [H_CC-065, 2-(4-dimethylamino-4-phenyl-piperidin-1-yl)-ethyl-[4-[1-[(4-methoxy-2,6-dimethyl-phenyl)sulfonyl]-piperidin-3-yl]oxy-pyrimidin-2-yl]-methyl-amine]
56%	COc1cc(C)c(S(=O)(=O)N2CCCC(Oc3ccnc(N(C)CCN4CCC(c5ccccc5)(N5CCCC5)CC4)n3)C2)c(C)c1 (stereo not shown) [H_CC-066, [4-[1-[(4-methoxy-2,6-dimethyl-phenyl)sulfonyl]-piperidin-3-yl]oxy-pyrimidin-2-yl]-methyl-[2-(4-phenyl-4-pyrrolidin-1-yl-piperidin-1-yl)-ethyl]amine]
59%	COc1cc(C)c(S(=O)(=O)N(C)CCOc2ccnc(N(C)CCN3CCC(c4ccccc4)(N(C)C)CC3)n2)c(C)c1 [H_CC-067, N-[2-[2-[2-(4-dimethylamino-4-phenyl-piperidin-1-yl)-ethyl-methyl-amino]-pyrimidin-4-yl]oxy-ethyl]-4-methoxy-N,2,6-trimethyl-benzenesulfonic acid amide]
65%	CCCCC1(N(C)C)CCN(c2nccc(OC[C@@H]3CCCN3S(=O)(=O)c3c(C)cc(OC)cc3C)n2)CC1 [H_CC-068, [4-butyl-1-[4-[[(2S)-1-[(4-methoxy-2,6-dimethyl-phenyl)sulfonyl]-pyrrolidin-2-yl]-methoxy]-pyrimidin-2-yl]-piperidin-4-yl]-dimethyl-amine]
52%	COc1cc(C)c(S(=O)(=O)N2CC(Oc3ccnc(N(C)CCN4CCC(c5ccccc5)(N(C)C)CC4)n3)C2)c(C)c1 [H_CC-069, 2-(4-dimethylamino-4-phenyl-piperidin-1-yl)-ethyl-[4-[1-[(4-methoxy-2,6-dimethyl-phenyl)sulfonyl]-azetidin-3-yl]oxy-pyrimidin-2-yl]-methyl-amine]
55%	CCCCC1(N(C)C)CCN(CCN(C)c2nccc(OC3CN(S(=O)(=O)c4c(C)cc(OC)cc4C)C3)n2)CC1 [H_CC-071, 2-(4-butyl-4-dimethylamino-piperidin-1-yl)-ethyl-[4-[1-[(4-methoxy-2,6-dimethyl-phenyl)sulfonyl]-azetidin-3-yl]oxy-pyrimidin-2-yl]-methyl-amine]
83%	COc1cc(C)c(S(=O)(=O)N2c3ccccc3C[C@H]2COc2ccnc(N(C)CCN3CCC(c4ccccc4)(N4CCCC4)CC3)n2)c(C)c1 [H_CC-072, [4-[[(2S)-1-[(4-methoxy-2,6-dimethyl-phenyl)sulfonyl]-2,3-dihydro-1H-indol-2-yl]-methoxy]-pyrimidin-2-yl]-methyl-[2-(4-phenyl-4-pyrrolidin-1-yl-piperidin-1-yl)-ethyl]-amine]
55%	COc1cc(C)c(S(=O)(=O)N2CCCC(Oc3ccnc(N(C)CCCN4CCC(c5ccccc5)(N(C)C)CC4)n3)C2)c(C)c1 (stereo not shown) [H_CC-073, 3-(4-dimethylamino-4-phenyl-piperidin-1-yl)-propyl-[4-[1-[(4-methoxy-2,6-dimethyl-phenyl)sulfonyl]-piperidin-3-yl]oxy-pyrimidin-2-yl]-methyl-amine]
59%	COc1cc(C)c(S(=O)(=O)N2CC(Oc3ccnc(N(C)CCCN4CCC(c5ccccc5)(N(C)C)CC4)n3)C2)c(C)c1 [H_CC-074, 3-(4-dimethylamino-4-phenyl-piperidin-1-yl)-propyl-[4-[1-[(4-methoxy-2,6-dimethyl-phenyl)sulfonyl]-azetidin-3-yl]oxy-pyrimidin-2-yl]-methyl-amine]
75%	COc1cc(C)c(S(=O)(=O)N2c3ccccc3C[C@H]2COc2ccnc(N(C)CCCN3CCC(c4ccccc4)(N(C)C)CC3)n2)c(C)c1 [H_CC-075, 3-(4-dimethylamino-4-phenyl-piperidin-1-yl)-propyl-[4-[[(2S)-1-[(4-methoxy-2,6-dimethyl-phenyl)sulfonyl]-2,3-dihydro-1H-indol-2-yl]-methoxy]-pyrimidin-2-yl]-methyl-amine]
69%	COc1cc(C)c(S(=O)(=O)N2CC(Oc3ccnc(N4CCC(O)(c5cccnc5)CC4)n3)C2)c(C)c1 [H_CC-076, 1-[4-[1-[(4-methoxy-2,6-dimethyl-phenyl)sulfonyl]-azetidin-3-yl]oxy-pyrimidin-2-yl]-4-pyridin-3-yl-piperidin-4-ol]
58%	COc1cc(C)c(S(=O)(=O)N2CC(Oc3ccnc(N4CCCN(Cc5ccccn5)CC4)n3)C2)c(C)c1 [H_CC-077, 1-[4-[1-[(4-methoxy-2,6-dimethyl-phenyl)sulfonyl]-azetidin-3-yl]oxy-pyrimidin-2-yl]-4-(pyridin-2-yl-methyl)-[1,4]diazepan]
77%	COc1cc(C)c(S(=O)(=O)N2CCCCC2COc2ccnc(N3CCCC3Cc3ccccn3)n2)c(C)c1 (stereo not shown) [H_CC-078, 4-[[1-[(4-methoxy-2,6-dimethyl-phenyl)sulfonyl]-piperidin-2-yl]-methoxy]-2-[2-(pyridin-2-yl-methyl)-pyrrolidin-1-yl]-pyrimidine]
73%	COc1cc(C)c(S(=O)(=O)N2CCCCC2COc2ccnc(N3CCC(Oc4ccccn4)CC3)n2)c(C)c1 (stereo not shown) [H_CC-079, 4-[[1-[(4-methoxy-2,6-dimethyl-phenyl)sulfonyl]-piperidin-2-yl]-methoxy]-2-(4-pyridin-2-yloxy-piperidin-1-yl)-pyrimidine]
61%	COc1cc(C)c(S(=O)(=O)N2CCCCC2COc2ccnc(N3CCC(C)(N4CCOCC4)CC3)n2)c(C)c1 (stereo not shown) [H_CC-081, 4-[1-[4-[[1-[(4-methoxy-2,6-dimethyl-phenyl)sulfonyl]-piperidin-2-yl]-methoxy]-pyrimidin-2-yl]-4-methyl-piperidin-4-yl]-morpholine]
72%	COc1cc(C)c(S(=O)(=O)N2CCCCC2COc2ccnc(N3CCC(CCCN4CCCC4)(c4cccnc4)CC3)n2)c(C)c1 (stereo not shown) [H_CC-082, 4-[[1-[(4-methoxy-2,6-dimethyl-phenyl)sulfonyl]-piperidin-2-yl]-methoxy]-2-[4-pyridin-3-yl-4-(3-pyrrolidin-1-yl-propyl)piperidin-1-yl]-pyrimidine]
59%	COc1cc(C)c(S(=O)(=O)N2CCCCC2COc2ccnc(N3CCC(O)(c4ccccn4)CC3)n2)c(C)c1 (stereo not shown) [H_CC-083, 1-[4-[[1-[(4-methoxy-2,6-dimethyl-phenyl)sulfonyl]-piperidin-2-yl]-methoxy]-pyrimidin-2-yl]-4-pyridin-2-yl-piperidin-4-ol]
55%	COc1cc(C)c(S(=O)(=O)N2CCC[C@@H]2COc2ccnc(N3CCCC3Cc3ccccn3)n2)c(C)c1 (stereo partly drawn) [H_CC-084, 4-[[(2R)-1-[(4-methoxy-2,6-dimethyl-phenyl)sulfonyl]-pyrrolidin-2-yl]-methoxy]-2-[2-(pyridin-2-yl-methyl)-pyrrolidin-1-yl]-pyrimidine]
70%	COc1cc(C)c(S(=O)(=O)N2CCC[C@H]2COc2ccnc(N3CCC(c4ccccc4)(N(C)C)CC3)n2)c(C)c1 [H_CC-085, [1-[4-[[(2S)-1-[(4-methoxy-2,6-dimethyl-phenyl)sulfonyl]-pyrrolidin-2-yl]-methoxy]-pyrimidin-2-yl]-4-phenyl-piperidin-4-yl]-dimethyl-amine]
